In ChEMBL document CHEMBL1201862, “PubChem BioAssay data set” (2004):
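Interpolation was linear, between the two tested concentrations surrounding the appropriate level; five concentrations were tested over 48 hours in 96-well plates. GI50: concentration for 50% inhibition of growth.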 Calls of active or inactive are those of the source. Cut-off read from the data, not from the text of the source: active = GI50 up to about 1.1 µM and inactive = higher.

How the values were obtained:
Test in all cases: inhibition of tumour cell growth, NCI panel, 48 h
UACC-257 = system: UACC-257
K562 = system: K562
OVCAR-3 = system: OVCAR-3
HL-60 = system: HL-60
NCI-H522 = system: NCI-H522
RXF 393 = system: RXF 393
RPMI-8226 = system: RPMI-8226
HT-29 = system: HT-29
A549 = system: A549
SF-295 = system: SF-295
SNB-75 = system: SNB-75
NCI-H226 = system: NCI-H226
U-251 = system: U-251
Malme-3M = system: Malme-3M
EKVX = system: EKVX

| Compound | GI50 (UACC-257) | GI50 (K562) | GI50 (OVCAR-3) | GI50 (HL-60) | GI50 (NCI-H522) | GI50 (RXF 393) | GI50 (RPMI-8226) | GI50 (HT-29) | GI50 (A549) | GI50 (SF-295) | GI50 (SNB-75) | GI50 (NCI-H226) | GI50 (U-251) | GI50 (Malme-3M) | GI50 (EKVX) |
| --- | --- | --- | --- | --- | --- | --- | --- | --- | --- | --- | --- | --- | --- | --- | --- |
| OCCCCOC(c1ccccc1)(c1ccccc1)c1ccccc1 | > 100 µM (inactive) | > 100 µM (inactive) | > 100 µM (inactive) | > 100 µM (inactive) | > 100 µM (inactive) | > 100 µM (inactive) | > 100 µM (inactive) | > 100 µM (inactive) | > 100 µM (inactive) | > 100 µM (inactive) | 67.5 µM (inactive) | > 100 µM (inactive) | > 100 µM (inactive) | > 100 µM (inactive) |  |
| CC(=O)Nc1ccccc1-c1cnc2ccccc2n1 | > 100 µM (inactive) | > 100 µM (inactive) | > 100 µM (inactive) | > 100 µM (inactive) | > 100 µM (inactive) |  | > 100 µM (inactive) | > 100 µM (inactive) | > 100 µM (inactive) | > 100 µM (inactive) | > 100 µM (inactive) | > 100 µM (inactive) | > 100 µM (inactive) | > 100 µM (inactive) | > 100 µM (inactive) |
| Cc1c(/C=N/NC(=O)c2ccccc2)c(=O)n(-c2ccccc2)n1C | > 100 µM (inactive) | > 100 µM (inactive) | > 100 µM (inactive) | > 100 µM (inactive) | > 100 µM (inactive) | > 100 µM (inactive) | > 100 µM (inactive) | > 100 µM (inactive) | > 100 µM (inactive) | > 100 µM (inactive) | > 100 µM (inactive) | > 100 µM (inactive) | > 100 µM (inactive) | > 100 µM (inactive) | > 100 µM (inactive) |
| CCc1cc(Cc2ccc(C)c(NC(=O)C(=O)C3C(=O)NC(=O)NC3=O)c2CC)cc(C)c1NC(=O)C(=O)C1C(=O)NC(=O)NC1=O | > 100 µM (inactive) | > 100 µM (inactive) | > 100 µM (inactive) | > 100 µM (inactive) | > 100 µM (inactive) | > 100 µM (inactive) | > 100 µM (inactive) |  | > 100 µM (inactive) |  | 24.6 µM (inactive) |  | > 100 µM (inactive) | > 100 µM (inactive) | > 100 µM (inactive) |
| CC(=O)Nc1ccc(C(=O)NN2C(=O)C(Cl)C2c2ccc(O)cc2)cc1 (stereo not drawn) | > 100 µM (inactive) | > 100 µM (inactive) | > 100 µM (inactive) | > 100 µM (inactive) | > 100 µM (inactive) | 61.7 µM (inactive) |  | > 100 µM (inactive) | > 100 µM (inactive) | > 100 µM (inactive) | > 100 µM (inactive) | > 100 µM (inactive) | > 100 µM (inactive) | > 100 µM (inactive) | > 100 µM (inactive) |
| N#CC1=C(N)N2C(=O)/C(=C/c3ccccc3)SC2C(c2nc3ccccc3[nH]2)=C1c1ccccc1 (stereo not drawn) | 4.55 µM (inactive) | 5.32 µM (inactive) | 1.89 µM (inactive) | 2.31 µM (inactive) | 1.86 µM (inactive) |  |  | 4.03 µM (inactive) | 3.87 µM (inactive) | 2.53 µM (inactive) | 1.74 µM (inactive) | 1.93 µM (inactive) | 2.44 µM (inactive) | 1.75 µM (inactive) | 2.23 µM (inactive) |
| CC1=CC(=O)NP(=O)(C23CC4CC(CC(C4)C2)C3)N1 (stereo not drawn) | > 100 µM (inactive) | > 100 µM (inactive) | > 100 µM (inactive) | > 100 µM (inactive) | > 100 µM (inactive) |  | > 100 µM (inactive) | > 100 µM (inactive) |  | > 100 µM (inactive) | > 100 µM (inactive) | > 100 µM (inactive) | > 100 µM (inactive) | > 100 µM (inactive) | > 100 µM (inactive) |
| c1ccc2[nH]c(-c3nc4ccccc4o3)nc2c1 | > 100 µM (inactive) |  | > 100 µM (inactive) | 17.6 µM (inactive) | 35.1 µM (inactive) |  | 81.3 µM (inactive) | > 100 µM (inactive) | > 100 µM (inactive) | > 100 µM (inactive) | > 100 µM (inactive) | 86.3 µM (inactive) | > 100 µM (inactive) | > 100 µM (inactive) | 8.65 µM (inactive) |
| O=C1OC(O)C(Oc2c(Cl)cccc2Cl)=C1Cl (stereo not drawn) | 19.5 µM (inactive) | 17.3 µM (inactive) | 13.5 µM (inactive) | 20 µM (inactive) | 12.5 µM (inactive) | 11.3 µM (inactive) | 18.1 µM (inactive) | 18.4 µM (inactive) | 17.2 µM (inactive) | 17.5 µM (inactive) | 25.6 µM (inactive) | 18.4 µM (inactive) | 13.8 µM (inactive) | 26.5 µM (inactive) | 29.6 µM (inactive) |
| Cc1cc(NS(=O)(=O)c2ccc(NC(=O)c3ccc(Cl)c4c(Nc5ccc(S(N)(=O)=O)cc5)c5ccccc5nc34)cc2)no1 | 24 µM (inactive) | 26.9 µM (inactive) | 20 µM (inactive) | 13.3 µM (inactive) | 11 µM (inactive) | 16.8 µM (inactive) |  | 22.2 µM (inactive) | 66.5 µM (inactive) | 25.1 µM (inactive) | 20.3 µM (inactive) | 20.3 µM (inactive) | 11.5 µM (inactive) | 15.5 µM (inactive) | 33.1 µM (inactive) |
| CCOC(=O)CNC1C(NC(C)=O)C(OC)OC2COC(c3ccccc3)OC21 (stereo not drawn) | > 100 µM (inactive) | > 100 µM (inactive) | > 100 µM (inactive) | > 100 µM (inactive) | > 100 µM (inactive) | > 100 µM (inactive) | > 100 µM (inactive) | > 100 µM (inactive) | > 100 µM (inactive) | > 100 µM (inactive) | > 100 µM (inactive) | > 100 µM (inactive) | > 100 µM (inactive) | > 100 µM (inactive) | > 100 µM (inactive) |
| CC(C(=O)c1ccccc1)C1(O)C(=O)Nc2ccccc21 (stereo not drawn) | > 100 µM (inactive) | > 100 µM (inactive) | > 100 µM (inactive) |  | > 100 µM (inactive) | > 100 µM (inactive) | > 100 µM (inactive) | > 100 µM (inactive) | > 100 µM (inactive) | > 100 µM (inactive) | > 100 µM (inactive) | > 100 µM (inactive) | > 100 µM (inactive) | > 100 µM (inactive) | > 100 µM (inactive) |
| COC(=O)[C@H](CC(C)C)NC(=O)[C@H](Cc1ccccc1)N1CC2C=CC1C2 (stereo partly drawn) | > 100 µM (inactive) | > 100 µM (inactive) | > 100 µM (inactive) | 47.6 µM (inactive) | > 100 µM (inactive) | > 100 µM (inactive) | 29.1 µM (inactive) | > 100 µM (inactive) | > 100 µM (inactive) | > 100 µM (inactive) | > 100 µM (inactive) | > 100 µM (inactive) | > 100 µM (inactive) | > 100 µM (inactive) | > 100 µM (inactive) |
| CC1(C)CC(=O)C(CC2C(=O)c3ccccc3C2=O)C(=O)C1 | > 100 µM (inactive) | > 100 µM (inactive) | > 100 µM (inactive) | > 100 µM (inactive) | > 100 µM (inactive) | > 100 µM (inactive) |  | > 100 µM (inactive) | > 100 µM (inactive) | > 100 µM (inactive) | > 100 µM (inactive) | > 100 µM (inactive) | > 100 µM (inactive) | > 100 µM (inactive) | > 100 µM (inactive) |
| COc1cc2c(c(OC)c1OC)-c1ccc(SC)c(=O)cc1C(CC(=O)Oc1cccc(C#N)c1)C2 (stereo not drawn) | 0.516 µM (active) | 0.181 µM (active) | 0.232 µM (active) | 0.254 µM (active) | 0.187 µM (active) | 0.167 µM (active) | 0.583 µM (active) | 0.276 µM (active) | 0.516 µM (active) | 0.266 µM (active) | 0.291 µM (active) | 0.222 µM (active) | 0.354 µM (active) | 0.175 µM (active) | 0.574 µM (active) |
| CC(=O)NC(CCCCN)C(=O)NCc1ccccc1 (stereo not drawn) | > 100 µM (inactive) | > 100 µM (inactive) | > 100 µM (inactive) |  | > 100 µM (inactive) | > 100 µM (inactive) | > 100 µM (inactive) | > 100 µM (inactive) | > 100 µM (inactive) | > 100 µM (inactive) | 88.1 µM (inactive) | > 100 µM (inactive) | > 100 µM (inactive) | > 100 µM (inactive) | > 100 µM (inactive) |
| COc1ccc2c(c1)C1(C=N2)CCN(C(C)=O)CC1 | > 100 µM (inactive) | > 100 µM (inactive) | > 100 µM (inactive) | > 100 µM (inactive) |  |  | 50.4 µM (inactive) | > 100 µM (inactive) | > 100 µM (inactive) | > 100 µM (inactive) | 41.1 µM (inactive) |  | > 100 µM (inactive) | > 100 µM (inactive) | > 100 µM (inactive) |
| Cc1nc(-c2nc(C)c(C(=O)NN(C)C)s2)sc1C(=O)NN(C)C | > 100 µM (inactive) | 32.6 µM (inactive) | > 100 µM (inactive) | 43 µM (inactive) | 34.6 µM (inactive) |  | 28.8 µM (inactive) | > 100 µM (inactive) |  | > 100 µM (inactive) | 60.3 µM (inactive) | > 100 µM (inactive) | > 100 µM (inactive) | > 100 µM (inactive) | > 100 µM (inactive) |
| C=CCNC(=S)N1CC(C)C(=O)Nc2cc(Cl)ccc21 (stereo not drawn) | > 100 µM (inactive) | > 100 µM (inactive) |  | > 100 µM (inactive) | > 100 µM (inactive) | > 100 µM (inactive) | > 100 µM (inactive) | > 100 µM (inactive) | > 100 µM (inactive) | > 100 µM (inactive) | > 100 µM (inactive) | 54.2 µM (inactive) | > 100 µM (inactive) | 82 µM (inactive) | > 100 µM (inactive) |
